The subject of series [1] is FAM83A overexpressing T4-2 cells. Briefly: Phenotypic reversion of FAM83A-overexpressing T4-2 cells in 3D lrECM with inhibitors. It is filed as cell-based, human. The settings on record: for phenotypic reversion of full-length FAM83A overexpressing T4-2 cells: 3D lrECM (FIG. 5B).
In a further series the test system is HMT3522 T4-2 cells. In words: Phenotypic reversion of malignant T4-2 cells cultured in 3D lrECM with signaling inhibitors. In kind it is cell-based, human. As to conditions: for induction of phenotypically normal acinus-like structures: T4-2 cells in 3D lrECM; for phenotypic reversion of control T4-2 cells: vector control T4-2 cells (FIG. 17C). The text has this:
The retroviral cDNA library from malignant T4-2 cells was re-introduced into T4-2 cells. Retrovirus transduced T4-2 cells were subsequently grown on 3D1rECM with one of the small molecule inhibitors, AG1478 (EGFR inhibitor), PD98059 (mitogen-activated protein kinase inhibitor), or LY294002 (PI3K inhibitor), […] […] After the second round of screening, the cDNA inserts were recovered from genomic DNA by PCR using primers to the flanking sequences of the retroviral cloning vector. Genomic DNA was isolated from selected clones grown on the monolayer.
Microscopic visual fields of FIG. 3 show non-malignant HMT3522 S1 cells form polarized acinar structures (FIG. 3A) resembling normally differentiated acinus in vivo, whereas malignant T4-2 cells form disorganized colonies constantly growing on 3D 1rECM (FIG. 3B).
(§1) FIG. 4B is a western blot of extracted cell lysates blotted with antibodies against EGFR, β-integrin, phosphorylated EGFR, and E-cadherin, which was used as a loading control.

Series [2] concerns Vector control T4-2 cells. Briefly: Lapatinib treatment of vector control T4-2 xenografts in mice. It is filed as in vivo, BALB/c-nude mice. On the procedure: (§2) Animal experiments were performed under federal guidelines and approved by Institutional Animal Welfare and Research Committee at LBN. Exponentially growing T4-2 cells or MDA-MB-468 cells were suspended at the density of 5×10^6 or 10×10^6, respectively, in 100 μl medium containing DMEM/F12 medium (50%) and Matrigel (50%). Cell suspension was subcutaneously injected into the rear flank of 6-8 wk old athymic female BALB/c-nude mice (nu/nu) (Charles River Laboratories) (n=8 per group). Tumor volumes were measured every other day. ANOVA 2-way analysis with Bonferroni post test was used to determine p-value. At the end of experiments, mice were sacrificed and subjected to pathological examinations.
(§3) The ability of FAM83A to confer cancer cell resistance to EGFR inhibitor in vivo was determined Vector control or FAM83A-overexpressing T4-2 cells were xenografted into mice, which were orally administered lapatinib by oral gavage at 30 mg/kg or 100 mg/kg twice daily for 3 weeks. […] Then, mice were randomized into vehicle (0.5% hydroxypropylmethylcellulose with 0.1% Tween 80 in water; n=8) and experimental treatment groups (n=8) to receive oral gavage of lapatinib at 30 mg/kg or 100 mg/kg twice daily for 3 weeks.

Series [3] deals with FAM83A-overexpressing T4-2 cells. In words: Lapatinib treatment of FAM83A-overexpressing T4-2 xenografts in mice. In kind it is in vivo, BALB/c-nude mice. On the procedure:
as §2, §3

A further series concerns EGFR. Briefly: Western blot of EGFR, phosphorylated EGFR and β1-integrin in AG1478-treated T4-2 cells. In kind it is cell-based, human. As to conditions: 3D lrECM, western blot (FIG. 4B).
Excerpt: as §1

The subject of series [4] is FAM83A. In words: RT-PCR and western blot of endogenous FAM83A in AG1478-treated T4-2 cells. In kind it is cell-based, human. On the procedure:
The expression level of endogenous FA[…] in non-reverted and reverted T4-2 cells was analyzed by RT-PCR and western blot with antibody against endogenous FA[…]. […] RNA levels in T4-2 cells cultured in both 2D monolayer and 3D 1rECM treated with AG1478 or vehicle control DMSO for 4 days. FIG. 7B is a bar graph quantification of the results from FIG. 7A. […] RNA levels in S1 cells growing in 2D or 3D cultures. FIG. 7C is a western blot comparison of FA[…] protein levels in S1 and T4-2 cells growing in 2D or 3D cultures in the presence or absence of AG1478.

Series [5] relates to FAM83A. Briefly: FAM83A protein knock-down by siRNA in T4-2 cells (western blot and immunofluorescence with FAM83A polyclonal antibody). In kind it is cell-based, human. As to conditions: T4-2 lysates, western blot vs scrambled control (FIG. 14B). On the procedure:
The specificity of FAM83A polyclonal antibody was tested by performing western blot and immunofluorescence analysis in two different sets of FAM83A-specific siRNA-treated T4-2 cells (siRNA#1, SEQ ID NO:1; and siRNA#2, SEQ ID NO:2) using the FAM83A polyclonal antibody.

The next series has as its system MDA-MB468 cells. Briefly: Xenograft growth of FAM83A shRNA-treated MDA-MB468 cells in nude mice. It is filed as in vivo, BALB/c-nude mice. The settings on record: fraction of the control cells (FIG. 17B). On the procedure: as §2
To confirm this observation for cells with stable FAM83A-depletion and a different genetic background, control or FAM83A shRNA-treated MDA-MB468 cells were subcutaneously injected into the rear flank of nude mice and monitored for their growth. For FAM83A shRNA production, a double-stranded DNA oligonucleotide was generated from the following sequences: sense, 5′-[…]-3′ (SEQ ID NO:7); antisense, 5′-[…]-3′ (SEQ ID NO:8) (target sequence underlined; BamH1/EcoR1 cohesive ends italicized). Both oligonucleotides were annealed and ligated into BamH1/EcoR1 site of pGreen puro lentival vector (System Biosciences).

[6] abbreviates: lapatinib 30 mg/kg, hematoxylin and eosin (FIG. 18B).
[7] abbreviates: lapatinib oral gavage twice daily for 3 weeks, 30 mg/kg (FIG. 17D).

For `COc1cccc(-c2cc(=O)c3ccccc3o2)c1N` [PD98059], in series [1], the “phenotypic reversion of full-length FAM83A overexpressing T4-2 cells” value is on record as “undergo phenotypic reversion”. Also, the “induction of phenotypically normal acinus-like structures” value in the series on HMT3522 T4-2 cells (20 μM PD98059) was “phenotypically normal acinus-like structures were induced”.

`COc1cc2ncnc(Nc3ccc(F)c(Cl)c3)c2cc1OCCCN1CCOCC1` [gefitinib]: the “phenotypic reversion of control T4-2 cells” value in the series with HMT3522 T4-2 cells was “reverted”.

For the molecule `CS(=O)(=O)CCNCc1ccc(-c2ccc3ncnc(Nc4ccc(OCc5cccc(F)c5)c(Cl)c4)c3c2)o1` [lapatinib], the “dose dependence of tumor inhibitory action on control cells” value in series [2] (30 mg/kg or 100 mg/kg oral gavage twice daily (FIG. 18A)) is given as “independent of the dose above 30 mg/kg”. Besides, the “pathological examination of sectioned control tumors” value in series [2] (setting [6]) was “well-circumscribed and distinctly separated from the stromal regions”. Also, the “growth of control tumors” value in series [2] (setting [7]) is “significantly inhibited”. The “structure of FAM83A-overexpressing T4-2 cells in presence of EGFR inhibitor” value in series [1] (FIG. 17C) is “maintained disorganized structures”. Moreover, the “phenotypic reversion of control T4-2 cells” value in the series on HMT3522 T4-2 cells is given as “reverted”. Besides, in series [3] (setting [6]), the “pathological examination of sectioned FAM83A-overexpressing tumors” value is “had been invading the stromal regions”. Moreover, in series [3] (lapatinib oral gavage twice daily for 3 weeks (FIG. 17D)), the “size of lapatinib-treated FAM83A-overexpressing tumors relative to controls” value is recorded as 5 times. In addition, the “growth of FAM83A-overexpressing tumors” value in series [3] (setting [7]) is “not affected”.

As for AG1478, in the series on EGFR, the EGFR protein level result is “decreased levels”, the “phosphorylated EGFR level” value was “lower levels” and the β1-integrin protein level result is recorded as “decreased levels”. Moreover, in series [1], the “phenotypic reversion of full-length FAM83A overexpressing T4-2 cells” value is “not”. Also, the “FAM83A mRNA expression” value in the series on FAM83A [4] (AG1478 4 days, RT-PCR) was “decreased”. In addition, in the series on FAM83A [4] (AG1478, western blot), the FAM83A protein expression result is “decreased”. For the same molecule, the “morphology of T4-2 cells treated with AG1478” value in the series on HMT3522 T4-2 cells (3D lrECM, 10 days, different concentrations (FIG. 4A)) was “form growth arrested acinus-like structures”. The “induction of phenotypically normal acinus-like structures” value in the series with HMT3522 T4-2 cells (100 nM AG1478) is listed as “phenotypically normal acinus-like structures were induced”.

B1: siRNA#1: one of two different sets of FAM83A-specific siRNA; printed as SEQ ID NO:1 (nucleic acid)
chain: ATGAGCCGGTCAAGGCACCTGGGCAAAATCCGGAAGCGTCTGGAAGATGTCAAGAGCCAGTGGGTCCGGCCAGCCAGGGCTGACTTTAGTGACAACGAGAGTGCCCGGCTGGCCACGGACGCCCTCTTGGATGGGGGTTCTGAAGCCTACTGGCGGGTGCTCAGCCAGGAAGGCGAGGTGGACTTCTTGTCCTCGGTGGAGGCCCAGTACATCCAGGCCCAGGCCAGGGAGCCCCCGTGTCCCCCAGACACCCTGGGAGGGGCGGAAGCAGGCCCTAAGGGACTGGACTCCAGCTCCCTACAGTCCGGCACCTACTTCCCTGTGGCCTCAGAGGGCAGCGAGCCGGCCCTACTGCACAGCTGGGCCTCAGCTGAGAAGCCCTACCTGAAGGAAAAATCCAGCGCCACTGTGTACTTCCAGACCGTCAAGCACAACAACATCAGAGACCTCGTCCGCCGCTGCATCACCCGGACTAGCCAGGTCCTGGTCATCCTGATGGATGTGTTCACGGATGTGGAGATCTTCTGTGACATTCTAGAGGCAGCCAACAAGCGTGGGGTGTTCGTTTGTGTGCTCCTGGACCAGGGAGGTGTGAAGCTCTTCCAGGAGATGTGTGACAAAGTCCAGATCTCTGACAGTCACCTCAAGAACATTTCCATCCGGAGTGTGGAAGGAGAGATATACTGTGCCAAGTCAGGCAGGAAATTCGCTGGCCAAATCCGGGAGAAGTTCATCATCTCGGACTGGAGATTTGTCCTGTCTGGATCTTACAGCTTCACCTGGCTCTGCGGACACGTGCACCGGAACATCCTCTCCAAGTTCACAGGCCAGGCGGTGGAGCTGTTTGACGAGGAGTTCCGCCACCTCTACGCCTCCTCCAAGCCTGTGATGGGCCTGAAGTCCCCGCGGCTGGTCGCCCCCGTCCCGCCCGGAGCAGCCCCGGCCAATGGCCGCCTTAGCAGCAGCAGTGGCTCCGCCAGTGACCGCACGTCCTCCAACCCCTTCAGCGGCCGCTCGGCAGGCAGCCACCCCGGTACCCGAAGTGTGTCCGCGTCTTCAGGGCCCTGTAGCCCCGCGGCCCCACACCCGCCTCCACCGCCCCGGTTCCAGCCCCACCAAGGCCCTTGGGGAGCCCCGAGTCCCCAGGCCCACCTCTCCCCGCGGCCCCACGACGGCCCGCCCGCCGCTGTCTACAGCAACCTGGGGGCCTACAGGCCCACGCGGCTGCAGCTGGAGCAGCTGGGCCTGGTGCCGAGGCTGACTCCAACCTGGAGGCCCTTCCTGCAGGCCTCCCCTCACTTCTGA
modifications: Homo sapien
As to B1, in the series with FAM83A [5], the “23 kDa FAM83A band” value was “reduced” and the “99 kDa FAM83A band” value is on record as “reduced”.

B2: FAM83A shRNA: shRNA from double-stranded DNA oligonucleotide (SEQ ID NO:7 and 8) ligated into pGreen puro lentiviral vector (nucleic acid)
sense: GATCCGTGTGGAAGGAGAGATATACTTCCTGTCAGATATATCTCTCCTTCCACACTTTTTG
antisense: AATTCAAAAAGTGTGGAAGGAGAGATATATCTGACAGGAAGTATATCTCTCCTTCCACACG
As to B2, the “tumor growth relative to control cells” value in the series with MDA-MB468 cells is reported as “¼”.
